Values after ≈ are worked out from the molar mass of the structure shown.
Experiments:
Plasmodium falciparum [1] = assay: Antimalarial activity against chloroquine-sensitive Plasmodium falciparum NF54; assay type: functional, organism-based
Plasmodium berghei = assay: Antimalarial activity against Plasmodium berghei infected in NMRI mice (Mus musculus) assessed as reduction in parasitaemia at 100 mg/kg, perorally administered 1 day post-infection measured 3 day post-infection; assay type: functional; parameters: scale not given: the % may be the effect or the level left; conditions: route oral
Plasmodium falciparum [2] = assay: Antimalarial activity against chloroquine-resistant Plasmodium falciparum K1; assay type: functional, organism-based
[3] = Partition coefficient, log P of the compound; assay type: physicochemical; conditions: octanol/water

Structure (SMILES)	IC50 (Plasmodium falciparum [1])	Activity (Plasmodium berghei)	IC50 (Plasmodium falciparum [2])	logP [3]
C=C(C)[C@@H]1CC[C@@H](C)C2(C1)OOC1(C[C@H](C(=C)C)CC[C@H]1C)OO2 (stereo partly specified)	6.6 ng/mL (≈ 0.0196 µM)	99.9%	0.0069 µg/mL (≈ 0.0205 µM)	
CC(=O)[C@@H]1CC[C@@H](C)C2(C1)OOC1(C[C@H](C(C)=O)CC[C@H]1C)OO2 (stereo partly specified)	2.1 ng/mL (≈ 0.00617 µM)	63%	0.0021 µg/mL (≈ 0.00617 µM)	
CC(N)[C@@H]1CC[C@@H](C)C2(C1)OOC1(C[C@H](C(C)N)CC[C@H]1C)OO2 (stereo partly specified)	82 ng/mL (≈ 0.239 µM)	99.1%	0.054 µg/mL (≈ 0.158 µM)	
C/C(=N\O)[C@@H]1CC[C@@H](C)C2(C1)OOC1(C[C@H](/C(C)=N/O)CC[C@H]1C)OO2 (stereo partly specified)	18 ng/mL (≈ 0.0486 µM)	<40%	0.03 µg/mL (≈ 0.081 µM)	
C[C@@H]1CC[C@H]2[C@@H](C)C(=O)O[C@@H]3O[C@@]4(C)CC[C@@H]1[C@]32OO4 [ARTEMISININ]	3.4 ng/mL (≈ 0.012 µM)	98%		2.2
C[C@@H]1CCCCC12OOC1(CCCC[C@@H]1C)OO2 (stereo partly specified) [WR-148999]		99.7%		

— ChEMBL document CHEMBL1268995, “The structure and antimalarial activity of dispiro-1,2,4,5-tetraoxanes derived from (+)-dihydrocarvone” (Bioorg Med Chem Lett, 2010)
